Results taken from patent publication US20130156934A1, “MICROCAPSULES BY COACERVATION CONTAINING A PHARMACEUTICAL INCORPORATED IN THE COATING POLYMER” (APTALIS PHARMA LIMITED, priority 2003, published 2013).
Each block holds one compound with its values, some of them ahead of it.

Assays:
[1] = Dissolution test according to USP 26 at pH 6.8; assay type: physicochemical
Description: A dissolution test is carried out on the microcapsules thus obtained comparing them with anhydrous theophylline in crystalline form.
The dissolution test was performed according to USP 26.
A dissolution test is carried out on the microcapsules obtained in Examples 5 and 6 according to the method previously described for Example 4
Dissolution test was performed according to USP 26
A dissolution test is carried out on the microcapsules thus obtained compared to fluoxetine raw material.
Dissolution test was performed according to USP 26.

[2] = Dissolution test according to USP 26 at pH 1.2; assay type: physicochemical; details: caffeine
Description: The microcapsutes obtained, when analysed with an electronic microscope (FIG. 3), show a distribution of the particles of the active principle within the polymeric membrane in the form of solid particles that are prevalently disposed at the interface between the polymer and the core. […] Dissolution test was performed according to USP 26.

Dissolution % at pH 6.8, 5 min ([1]; fluoxetine, USP 26): 55%
Dissolution % at pH 6.8, 10 min ([1]; fluoxetine, USP 26): 75%
Dissolution % at pH 6.8, 20 min ([1]; 20 min, fluoxetine, USP 26): 100%
Structure (SMILES): CNCCC(Oc1ccc(C(F)(F)F)cc1)c1ccccc1 (stereo not shown) [Fluoxetine]

Dissolution % at pH 6.8, 5 min ([1]; theophylline, USP 26): 65%
Dissolution % at pH 6.8, 10 min ([1]; theophylline, Table of Example 7, lower head): 100%
Dissolution % at pH 6.8, 15 min ([1]; 15 min, theophylline, USP 26): 100%
Structure (SMILES): Cn1c(=O)c2[nH]cnc2n(C)c1=O [Anhydrous Theophylline]

Structure (SMILES): Cn1c(=O)c2c(ncn2C)n(C)c1=O [Caffeine]
Dissolution % at pH 1.2, 60 min [2]: 100%
